The numbers were not newly measured in patent US20250340636A1, “ANTIBODIES TARGETING L1CAM AND USES THEREOF” (MEMORIAL SLOAN-KETTERING CANCER CENTER, priority 2023, published 2025), which cites them from elsewhere.

SMILES strings stand for the structures.

The conditions of this data set: free drug, mice (Quintieri et al. 2005); cited from earlier work.

In the case of `COc1cccc2c1C(=O)c1c(O)c3c(c(O)c1C2=O)C[C@@](O)(C(=O)CO)C[C@@H]3O[C@H]1C[C@H]2[C@H](O[C@@H]3[C@@H](OC)OCCN32)[C@H](C)O1` [PNU-159682], the maximum tolerated dose was 0.015 mg/kg.
